Target: T1, CCDC6-RET (Homo sapiens, UniProt P07949+Q16204+Q96SW2)
T1 construct: CCDC6 (natural N-terminal fusion partner, UniProt Q16204); endogenous in cells; host or cells: TPC-1 (parental, papillary thyroid carcinoma)
Test: Cellular RET degradation, AlphaLISA, TPC-1 cell line
Type: cell-based
Settings: for Dmax: TPC1, human, 24 h, read-out: Cell Density TPC-1/CCDC6-RET Ymax %; for DC50: read-out: Cell Density TPC-1/CCDC6-RET DC50, half-maximal degradation concentration, TPC-1 (CCDC6-RET), 24 hrs
Summary of the method: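 Luminescent AlphaLISA read of RET abundance in lysates after 24 h compound exposure (37 °C, 2% FBS DMEM) of CCDC6-RET-bearing TPC-1 cells. % degradation relative to DMSO (high) and media (low) controls, fitted to 4-parameter logistic curve for DC50 and Ymax.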

T1 sequence (Q16204+P07949 fused): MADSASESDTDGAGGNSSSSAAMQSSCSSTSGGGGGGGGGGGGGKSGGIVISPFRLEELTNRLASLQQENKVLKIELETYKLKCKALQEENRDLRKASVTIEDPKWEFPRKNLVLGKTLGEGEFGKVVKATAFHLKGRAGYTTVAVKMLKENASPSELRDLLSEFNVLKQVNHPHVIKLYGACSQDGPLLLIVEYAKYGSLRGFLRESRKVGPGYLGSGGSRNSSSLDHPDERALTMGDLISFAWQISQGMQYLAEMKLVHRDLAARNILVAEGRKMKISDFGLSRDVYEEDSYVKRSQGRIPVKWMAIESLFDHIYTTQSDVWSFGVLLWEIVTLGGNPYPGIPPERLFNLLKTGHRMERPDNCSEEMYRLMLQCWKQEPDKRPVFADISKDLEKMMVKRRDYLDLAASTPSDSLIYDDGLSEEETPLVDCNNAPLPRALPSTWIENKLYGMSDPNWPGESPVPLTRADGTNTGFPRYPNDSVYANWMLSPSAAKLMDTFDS
T1 sequence (Q96SW2 whole entry, the tested form may be a part): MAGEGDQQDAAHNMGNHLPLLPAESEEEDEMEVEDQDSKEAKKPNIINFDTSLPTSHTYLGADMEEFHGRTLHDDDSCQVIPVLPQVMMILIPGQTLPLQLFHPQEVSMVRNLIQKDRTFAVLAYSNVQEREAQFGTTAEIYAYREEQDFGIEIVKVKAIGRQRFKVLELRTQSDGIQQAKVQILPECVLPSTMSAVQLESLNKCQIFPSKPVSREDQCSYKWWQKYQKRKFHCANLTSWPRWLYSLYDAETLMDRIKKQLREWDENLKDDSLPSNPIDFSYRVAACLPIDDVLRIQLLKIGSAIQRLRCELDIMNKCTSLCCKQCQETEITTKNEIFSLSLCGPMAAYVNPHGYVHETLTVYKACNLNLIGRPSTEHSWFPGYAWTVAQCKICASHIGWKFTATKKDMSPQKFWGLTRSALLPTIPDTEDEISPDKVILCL
T1 sequence (Q16531 whole entry partner, the tested form may be a part): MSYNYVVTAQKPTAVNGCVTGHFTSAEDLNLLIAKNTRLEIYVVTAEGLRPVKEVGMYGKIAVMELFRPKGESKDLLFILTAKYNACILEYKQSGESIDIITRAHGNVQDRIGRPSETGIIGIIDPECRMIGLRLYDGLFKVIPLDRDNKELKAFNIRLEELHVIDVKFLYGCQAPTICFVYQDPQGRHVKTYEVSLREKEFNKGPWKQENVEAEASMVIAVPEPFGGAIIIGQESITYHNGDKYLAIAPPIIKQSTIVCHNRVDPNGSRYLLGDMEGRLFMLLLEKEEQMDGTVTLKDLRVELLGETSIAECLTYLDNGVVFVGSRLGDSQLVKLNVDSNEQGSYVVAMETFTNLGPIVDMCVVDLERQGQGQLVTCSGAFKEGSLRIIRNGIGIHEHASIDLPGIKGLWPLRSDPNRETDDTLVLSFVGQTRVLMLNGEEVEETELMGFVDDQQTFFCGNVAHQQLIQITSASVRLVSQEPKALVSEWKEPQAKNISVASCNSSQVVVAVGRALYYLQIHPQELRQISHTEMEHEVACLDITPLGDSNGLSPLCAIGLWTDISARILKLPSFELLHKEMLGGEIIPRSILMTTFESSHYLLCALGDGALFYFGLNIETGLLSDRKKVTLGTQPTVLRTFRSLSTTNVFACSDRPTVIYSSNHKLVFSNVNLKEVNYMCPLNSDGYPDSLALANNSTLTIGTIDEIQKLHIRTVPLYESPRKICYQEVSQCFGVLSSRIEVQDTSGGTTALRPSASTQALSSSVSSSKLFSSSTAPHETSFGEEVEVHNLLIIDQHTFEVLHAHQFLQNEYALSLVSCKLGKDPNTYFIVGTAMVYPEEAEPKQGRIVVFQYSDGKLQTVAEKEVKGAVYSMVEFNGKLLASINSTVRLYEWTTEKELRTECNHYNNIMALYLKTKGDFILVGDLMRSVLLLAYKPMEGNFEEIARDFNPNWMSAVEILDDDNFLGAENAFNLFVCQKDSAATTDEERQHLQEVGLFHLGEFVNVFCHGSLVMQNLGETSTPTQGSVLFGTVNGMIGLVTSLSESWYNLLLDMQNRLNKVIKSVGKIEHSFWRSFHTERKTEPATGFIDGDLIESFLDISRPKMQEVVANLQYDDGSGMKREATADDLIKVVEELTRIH

| Structure (SMILES) | Dmax | DC50 |
| --- | --- | --- |
| CCOc1cc(-c2ccc(N3CCC(CN4CCN(C(=O)CCN5CCN(c6ccc7c(c6)CN(C6CCC(=O)NC6=O)C7=O)CC5)CC4)(C(=O)NC(C)C)CC3)nc2)c2c(C#N)cnn2c1 (stereo not drawn) [Example 77, 1-(5-(3-Cyano-6-ethoxypyrazolo[1,5-a]pyridin-4-yl)pyridin-2-yl)-4-((4-(3-(4-(2-(2,6-dioxopiperidin-3-yl)-1-oxoisoindolin-5-yl)piperazin-1-yl)propanoyl)piperazin-1-yl)methyl)-N-isopropylpiperidine-4-carboxamide] | 60 to 90% | < 2 nM |
| CCOc1cc(-c2ccc(N3CCC(CN4CCN(C(=O)C5CC6(CC(C(=O)Nc7ccc8c(N9CCC(=O)NC9=O)nn(C)c8c7)C6)C5)CC4)(NC(=O)c4cc(F)ccc4F)CC3)nc2)c2c(C#N)cnn2c1 (stereo not drawn) [Example 84, 6-(4-{[1-(5-{3-cyano-6-ethoxypyrazolo[1,5-a]pyridin-4-yl}pyridin-2-yl)-4-(2,5-difluorobenzamido)piperidin-4-yl]methyl}piperazine-1-carbonyl)-N-[3-(2,4-dioxo-1,3-diazinan-1-yl)-1-methyl-1H-indazol-6-yl]spiro[3.3]heptane-2-carboxamide] | > 90% | < 2 nM |
| CCOc1cc(-c2ccc(N3CCC(CN4CCN(C(=O)C5CC6(C5)CC(C(=O)N5CCN(c7ccc8c(c7)CN(C7CCC(=O)NC7=O)C8=O)CC5)C6)CC4)(NC(=O)c4cc(F)ccc4F)CC3)nc2)c2c(C#N)cnn2c1 (stereo not drawn) [Example 85, N-[1-(5-{3-cyano-6-ethoxypyrazolo[1,5-a]pyridin-4-yl}pyridin-2-yl)-4-{[4-(6-{4-[2-(2,6-dioxopiperidin-3-yl)-1-oxo-2,3-dihydro-1H-isoindol-5-yl]piperazine-1-carbonyl}spiro[3.3]heptane-2-carbonyl)piperazin-1-yl]methyl}piperidin-4-yl]-2,5-difluorobenzamide] | 60 to 90% | < 2 nM |
| CCOc1cc(-c2ccc(N3CCC(CN4CCN(C(=O)C5CC6(C5)CC(C(=O)N5CCN(c7ccc8c(c7)C(=O)N(C7CCC(=O)NC7=O)C8)CC5)C6)CC4)(NC(=O)c4cc(F)ccc4F)CC3)nc2)c2c(C#N)cnn2c1 (stereo not drawn) [Example 86, N-[1-(5-{3-cyano-6-ethoxypyrazolo[1,5-a]pyridin-4-yl}pyridin-2-yl)-4-{[4-(6-{4-[2-(2,6-dioxopiperidin-3-yl)-3-oxo-2,3-dihydro-1H-isoindol-5-yl]piperazine-1-carbonyl}spiro[3.3]heptane-2-carbonyl)piperazin-1-yl]methyl}piperidin-4-yl]-2,5-difluorobenzamide] | > 90% | < 2 nM |
| CCOc1cc(-c2ccc(N3CCC(CN4CCC5(CC4)CCN(C(=O)CCN4CCN(c6ccc7c(c6)CN(C6CCC(=O)NC6=O)C7=O)CC4)CC5)(NC(=O)c4cc(F)ccc4F)CC3)nc2)c2c(C#N)cnn2c1 (stereo not drawn) [Example 87, N-[1-(5-{3-cyano-6-ethoxypyrazolo[1,5-a]pyridin-4-yl}pyridin-2-yl)-4-{[9-(3-{4-[2-(2,6-dioxopiperidin-3-yl)-1-oxo-2,3-dihydro-1H-isoindol-5-yl]piperazin-1-yl}propanoyl)-3,9-diazaspiro[5.5]undecan-3-yl]methyl}piperidin-4-yl]-2,5-difluorobenzamide] | > 90% | 2 to 10 nM |
| CCOc1cc(-c2ccc(N3CCC(CN4CCC5(CC4)CCN(C(=O)CCN4CCC(c6ccc7c(c6)CN(C6CCC(=O)NC6=O)C7=O)CC4)CC5)(NC(=O)c4cc(F)ccc4F)CC3)nc2)c2c(C#N)cnn2c1 (stereo not drawn) [Example 88, N-[1-(5-{3-cyano-6-ethoxypyrazolo[1,5-a]pyridin-4-yl}pyridin-2-yl)-4-{[9-(3-{4-[2-(2,6-dioxopiperidin-3-yl)-1-oxo-2,3-dihydro-1H-isoindol-5-yl]piperidin-1-yl}propanoyl)-3,9-diazaspiro[5.5]undecan-3-yl]methyl}piperidin-4-yl]-2,5-difluorobenzamide] | > 90% | 10 to 100 nM |
| CCOc1cc(-c2ccc(N3CCC(CN4CC5(C4)CN(C(=O)CCN4CCC(c6ccc7c(c6)CN(C6CCC(=O)NC6=O)C7=O)CC4)C5)(NC(=O)c4cc(F)ccc4F)CC3)nc2)c2c(C#N)cnn2c1 (stereo not drawn) [Example 89, N-[1-(5-{3-cyano-6-ethoxypyrazolo[1,5-a]pyridin-4-yl}pyridin-2-yl)-4-{[6-(3-{4-[2-(2,6-dioxopiperidin-3-yl)-1-oxo-2,3-dihydro-1H-isoindol-5-yl]piperidin-1-yl}propanoyl)-2,6-diazaspiro[3.3]heptan-2-yl]methyl}piperidin-4-yl]-2,5-difluorobenzamide] | > 90% | 10 to 100 nM |
| CCOc1cc(-c2ccc(N3CCC(CN4CCN(CCC(=O)N5CCC6(CC5)CCN(c5ccc7c(c5)CN(C5CCC(=O)NC5=O)C7=O)CC6)CC4)(NC(=O)c4cc(F)ccc4F)CC3)nc2)c2c(C#N)cnn2c1 (stereo not drawn) [Example 90, N-[1-(5-{3-cyano-6-ethoxypyrazolo[1,5-a]pyridin-4-yl}pyridin-2-yl)-4-{[4-(3-{9-[2-(2,6-dioxopiperidin-3-yl)-1-oxo-2,3-dihydro-1H-isoindol-5-yl]-3,9-diazaspiro[5.5]undecan-3-yl}-3-oxopropyl)piperazin-1-yl]methyl}piperidin-4-yl]-2,5-difluorobenzamide] | > 90% | 10 to 100 nM |
| CCOc1cc(-c2ccc(N3CCC(CN4CCN(C(=O)CCN5CCC6(CC5)CCN(c5ccc7c(c5)CN(C5CCC(=O)NC5=O)C7=O)CC6)CC4)(NC(=O)c4cc(F)ccc4F)CC3)nc2)c2c(C#N)cnn2c1 (stereo not drawn) [Example 91, N-[1-(5-{3-cyano-6-ethoxypyrazolo[1,5-a]pyridin-4-yl}pyridin-2-yl)-4-{[4-(3-{9-[2-(2,6-dioxopiperidin-3-yl)-1-oxo-2,3-dihydro-1H-isoindol-5-yl]-3,9-diazaspiro[5.5]undecan-3-yl}propanoyl)piperazin-1-yl]methyl}piperidin-4-yl]-2,5-difluorobenzamide] | 60 to 90% | < 2 nM |
| CCOc1cc(-c2ccc(N3CCC(CN4CCN(C(=O)C5CC6(C5)CC(N5CCC(c7ccc8c(c7)CN(C7CCC(=O)NC7=O)C8=O)CC5)C6)CC4)(NC(=O)c4cc(F)ccc4F)CC3)nc2)c2c(C#N)cnn2c1 (stereo not drawn) [Example 92, N-[1-(5-{3-cyano-6-ethoxypyrazolo[1,5-a]pyridin-4-yl}pyridin-2-yl)-4-{[4-(6-{4-[2-(2,6-dioxopiperidin-3-yl)-1-oxo-2,3-dihydro-1H-isoindol-5-yl]piperidin-1-yl}spiro[3.3]heptane-2-carbonyl)piperazin-1-yl]methyl}piperidin-4-yl]-2,5-difluorobenzamide] | > 90% | 2 to 10 nM |
| CCOc1cc(-c2ccc(N3CCC(CN4CCN(C(=O)C5CC6(CC(Nc7ccc8c(N9CCC(=O)NC9=O)nn(C)c8c7)C6)C5)CC4)(NC(=O)c4cc(F)ccc4F)CC3)nc2)c2c(C#N)cnn2c1 (stereo not drawn) [Example 93, N-[1-(5-{3-cyano-6-ethoxypyrazolo[1,5-a]pyridin-4-yl}pyridin-2-yl)-4-{[4-(6-{[3-(2,4-dioxo-1,3-diazinan-1-yl)-1-methyl-1H-indazol-6-yl]amino}spiro[3.3]heptane-2-carbonyl)piperazin-1-yl]methyl}piperidin-4-yl]-2,5-difluorobenzamide] | > 90% | 2 to 10 nM |
| CCOc1cc(-c2ccc(N3CCC(CN4CCN(C5CC6(CC(C(=O)N7CCN(c8ccc9c(c8)CN(C8CCC(=O)NC8=O)C9=O)CC7)C6)C5)CC4)(NC(=O)c4cc(F)ccc4F)CC3)nc2)c2c(C#N)cnn2c1 (stereo not drawn) [Example 94, N-[1-(5-{3-cyano-6-ethoxypyrazolo[1,5-a]pyridin-4-yl}pyridin-2-yl)-4-{[4-(6-{4-[2-(2,6-dioxopiperidin-3-yl)-1-oxo-2,3-dihydro-1H-isoindol-5-yl]piperazine-1-carbonyl}spiro[3.3]heptan-2-yl)piperazin-1-yl]methyl}piperidin-4-yl]-2,5-difluorobenzamide] | 60 to 90% | 2 to 10 nM |
| CCOc1cc(-c2ccc(N3CCC(CN4CCN(C5CC6(CC(C(=O)N7CCC(c8ccc9c(c8)CN(C8CCC(=O)NC8=O)C9=O)CC7)C6)C5)CC4)(NC(=O)c4cc(F)ccc4F)CC3)nc2)c2c(C#N)cnn2c1 (stereo not drawn) [Example 95, N-[1-(5-{3-cyano-6-ethoxypyrazolo[1,5-a]pyridin-4-yl}pyridin-2-yl)-4-{[4-(6-{4-[2-(2,6-dioxopiperidin-3-yl)-1-oxo-2,3-dihydro-1H-isoindol-5-yl]piperidine-1-carbonyl}spiro[3.3]heptan-2-yl)piperazin-1-yl]methyl}piperidin-4-yl]-2,5-difluorobenzamide] | 60 to 90% | 2 to 10 nM |
| CCOc1cc(-c2ccc(N3CCC(CN4CCC5(CC4)CCN(C(=O)c4ccc6c(c4)C(=O)N(C4CCC(=O)NC4=O)C6)CC5)(NC(=O)c4cc(F)ccc4F)CC3)nc2)c2c(C#N)cnn2c1 (stereo not drawn) [Example 96, N-[1-(5-{3-cyano-6-ethoxypyrazolo[1,5-a]pyridin-4-yl}pyridin-2-yl)-4-({9-[2-(2,6-dioxopiperidin-3-yl)-3-oxo-2,3-dihydro-1H-isoindole-5-carbonyl]-3,9-diazaspiro[5.5]undecan-3-yl}methyl)piperidin-4-yl]-2,5-difluorobenzamide] | 60 to 90% | 10 to 100 nM |
| CCOc1cc(-c2ccc(N3CCC(CN4CC5(C4)CN(C(=O)COc4ccc6c(c4)CN(C4CCC(=O)NC4=O)C6=O)C5)(NC(=O)c4cc(F)ccc4F)CC3)nc2)c2c(C#N)cnn2c1 (stereo not drawn) [Example 97, N-[1-(5-{3-cyano-6-ethoxypyrazolo[1,5-a]pyridin-4-yl}pyridin-2-yl)-4-{[6-(2-{[2-(2,6-dioxopiperidin-3-yl)-1-oxo-2,3-dihydro-1H-isoindol-5-yl]oxy}acetyl)-2,6-diazaspiro[3.3]heptan-2-yl]methyl}piperidin-4-yl]-2,5-difluorobenzamide] | 60 to 90% | 2 to 10 nM |

From patent US20260356830A1, “COMPOUNDS FOR MODULATING RET PROTEIN” (Bristol-Myers Squibb Company, priority 2022, published 2026)
